Data: patent US20100119483A1, “PEPTIDE VIRAL ENTRY INHIBITORS” (Schering Corporation, priority 2004, published 2010)
Several values for one entry are separate records, joined by “and”; a condition that tells them apart may be missing. Equal entries are not always repeated. Ends that are not written are not given here.

What was measured:
HCV pseudoparticles = assay: HCV pseudoparticle (HCVpp) entry assay in Huh7 hepatoma cells, luciferase readout; type: cell-based, hepatitis C virus; details: for HCVpp % inh: peptide library screen, first screened at 100 ug/ml, cell entry inhibition vs uninhibited control; for luciferase units, HCV entry: duplicates; for % of control at ~30 uM: percentage of hepatitis C virus cellular entry at 30 μM peptide vs uninhibited control
Summary of the method: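 Pseudoparticles carrying HCV E1/E2 on an HIV luciferase backbone were produced in 293T cells; peptide was pre-incubated 1 h at 37 °C with Huh7 cells, then virus added and luciferase read after 72 h. Dose-response used 10-point 3-fold titration from 100 ug/ml; envelope-less particles controlled non-specific entry.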

[1] = test system: amphotropic murine leukemia virus; assay: AMLV pseudotyped virus entry counter-screen, same infection protocol; type: cell-based; details: for AMLVpp % inh: peptide library screen, cell entry inhibition vs uninhibited control; for luciferase units, AMLV entry: duplicates
Protocol: Infection of hepatoma cell lines with HCV pseudotype particles and screen for inhibitory peptides. The hepatoma cells, Huh7, was seeded at 8000 cells in 90 ul medium in 96-well plate. In the case of the inhibitor screen, the inhibitor was incubated with cells for one hour at 37° C. and then 50 ul viral supernatant was added to the cells 24 hours after seeding. The viral stock was pre-tittered and diluted to yield approximately 10,000 to 20,000 RLU. The cells were incubated at 37° C. with 5% CO2 for additional 72 hours and were harvested for luciferase assay. Peptide stocks were prepared in 100% DMSO at 10 mg/ml and were first screened at 100 ug/ml and then a dose responsive curve was generated with 10 points 3-fold titration starting from 100 ug/ml.
The specificity of the peptides were counter-screened with AMLV and HIV pseudotyped viruses using the same infection protocol.

[2] = 0.1 nM of peptide (printed for three rows), two values per peptide and row
[3] = 0.3 nM of peptide, two values per peptide
[4] = 1 nM of peptide, two values per peptide
[5] = 3 nM of peptide, two values per peptide
[6] = 10 nM of peptide, two values per peptide
[7] = 30 nM of peptide, two values per peptide
[8] = 100 nM of peptide, two values per peptide
[9] = 300 nM of peptide, two values per peptide
[10] = 10000 nM of peptide, two values per peptide
[11] = 30000 nM of peptide, two values per peptide
[12] = 0.01371742 uM of peptide (three lines)

Substance: L-E-A-A-C-N-W-T-R-G-E-R-C-N-L-E [SEQ ID NO: 67]
- HCVpp % inh (HCV pseudoparticles): 26%
- AMLVpp % inh [1]: 37%

Substance: A-I-K-W-E-Y-V-L-L-L-F-L-L [SEQ ID NO: 85]
- % control (HCVpp entry), alanine scanning (HCV pseudoparticles; [2]): 79 % control and 81 % control and 101 % control and 74 % control and 113 % control and 112 % control
- % control (HCVpp entry), alanine scanning (HCV pseudoparticles; [3]): 79 % control and 96 % control
- % control (HCVpp entry), alanine scanning (HCV pseudoparticles; [4]): 95 % control and 83 % control
- % control (HCVpp entry), alanine scanning (HCV pseudoparticles; [5]): 71 % control and 88 % control
- % control (HCVpp entry), alanine scanning (HCV pseudoparticles; [6]): 90 % control and 107 % control
- % control (HCVpp entry), alanine scanning (HCV pseudoparticles; [7]): 62 % control and 57 % control
- luciferase units, HCV entry (HCV pseudoparticles; 0.04115226 uM of peptide): 7203 luciferase units and 6444 luciferase units
- % control (HCVpp entry), alanine scanning (HCV pseudoparticles; [8]): 45 % control and 50 % control
- % control (HCVpp entry), alanine scanning (HCV pseudoparticles; [9]): 18 % control and 22 % control
- luciferase units, HCV entry (HCV pseudoparticles; 0.3703704 uM of peptide): 3658 luciferase units and 3430 luciferase units
- luciferase units, HCV entry (HCV pseudoparticles; 1.111111 uM of peptide): 4380 luciferase units and 2918 luciferase units
- luciferase units, HCV entry (HCV pseudoparticles; 3.333333 uM of peptide): 2239 luciferase units and 2490 luciferase units
- luciferase units, HCV entry (HCV pseudoparticles; 10 uM of peptide): 3393 luciferase units and 2865 luciferase units
- % control (HCVpp entry), alanine scanning (HCV pseudoparticles; [10]): 13 % control and 18 % control
- % control (HCVpp entry), alanine scanning (HCV pseudoparticles; [11]): 70 % control and 103 % control
- % of control at ~30 uM (HCV pseudoparticles): 20%
- luciferase units, AMLV entry [1, 12]: 55532 luciferase units and 43767 luciferase units and 32138 luciferase units and 44812 luciferase units and 41172 luciferase units and 40068 luciferase units
- luciferase units, AMLV entry ([1]; 0.04115226 uM of peptide): 32390 luciferase units and 42604 luciferase units
- luciferase units, AMLV entry ([1]; 0.1234568 uM of peptide): 41483 luciferase units and 44739 luciferase units
- luciferase units, AMLV entry ([1]; 0.3703704 uM of peptide): 44659 luciferase units and 43073 luciferase units
- luciferase units, AMLV entry ([1]; 1.111111 uM of peptide): 42996 luciferase units and 48628 luciferase units
- luciferase units, AMLV entry ([1]; 3.333333 uM of peptide): 92146 luciferase units and 118949 luciferase units
- luciferase units, AMLV entry ([1]; 10 uM of peptide): 129890 luciferase units and 172763 luciferase units
- luciferase units, AMLV entry ([1]; 30 uM of peptide): 72040 luciferase units and 83257 luciferase units

Substance: A-I-K-W-E-Y-V-L-L-L-F-L-L [SEQ ID NO: 86]
- % control (HCVpp entry), alanine scanning (HCV pseudoparticles; [2]): 86 % control and 90 % control and 87 % control and 103 % control and 108 % control
- % control (HCVpp entry), alanine scanning (HCV pseudoparticles; [3]): 96 % control and 133 % control
- % control (HCVpp entry), alanine scanning (HCV pseudoparticles; [4]): 80 % control and 102 % control
- % control (HCVpp entry), alanine scanning (HCV pseudoparticles; [5]): 90 % control and 118 % control
- % control (HCVpp entry), alanine scanning (HCV pseudoparticles; [6]): 69 % control and 67 % control
- luciferase units, HCV entry (HCV pseudoparticles; [12]): 10981 luciferase units and 12701 luciferase units and 17159 luciferase units and 18427 luciferase units and 19121 luciferase units and 16287 luciferase units
- % control (HCVpp entry), alanine scanning (HCV pseudoparticles; [7]): 59 % control and 60 % control
- luciferase units, HCV entry (HCV pseudoparticles; 0.04115226 uM of peptide): 8349 luciferase units and 8612 luciferase units
- % control (HCVpp entry), alanine scanning (HCV pseudoparticles; [8]): 48 % control and 33 % control
- luciferase units, HCV entry (HCV pseudoparticles; 0.1234568 uM of peptide): 6445 luciferase units and 3869 luciferase units
- % control (HCVpp entry), alanine scanning (HCV pseudoparticles; [9]): 25 % control and 30 % control
- luciferase units, HCV entry (HCV pseudoparticles; 0.3703704 uM of peptide): 5748 luciferase units and 3127 luciferase units
- luciferase units, HCV entry (HCV pseudoparticles; 1.111111 uM of peptide): 3652 luciferase units and 3574 luciferase units
- luciferase units, HCV entry (HCV pseudoparticles; 3.333333 uM of peptide): 2746 luciferase units and 2356 luciferase units
- % control (HCVpp entry), alanine scanning (HCV pseudoparticles; [10]): 27 % control and 25 % control
- luciferase units, HCV entry (HCV pseudoparticles; 30 uM of peptide): 1899 luciferase units and 1645 luciferase units
- % control (HCVpp entry), alanine scanning (HCV pseudoparticles; [11]): 15 % control and 27 % control
- % of control at ~30 uM (HCV pseudoparticles): 13%
- luciferase units, AMLV entry [1, 12]: 42295 luciferase units and 44556 luciferase units and 43059 luciferase units and 48854 luciferase units and 37783 luciferase units and 49462 luciferase units
- luciferase units, AMLV entry ([1]; 0.04115226 uM of peptide): 42084 luciferase units and 47952 luciferase units
- luciferase units, AMLV entry ([1]; 0.1234568 uM of peptide): 37163 luciferase units and 47412 luciferase units
- luciferase units, AMLV entry ([1]; 0.3703704 uM of peptide): 43543 luciferase units and 47987 luciferase units
- luciferase units, AMLV entry ([1]; 1.111111 uM of peptide): 40296 luciferase units and 43593 luciferase units
- luciferase units, AMLV entry ([1]; 3.333333 uM of peptide): 53350 luciferase units and 39047 luciferase units
- luciferase units, AMLV entry ([1]; 10 uM of peptide): 70573 luciferase units and 72462 luciferase units
- luciferase units, AMLV entry ([1]; 30 uM of peptide): 76174 luciferase units and 71333 luciferase units

Substance: M-A-W-D-M-M-M-N-W-S-P-T-A-A-L-V (MAWDMMMNWSPTAALV; not fully specified (C-terminus); printed as M-A-W-D-M-M-M-N-W-S-P-T-A-A-L-V) [SEQ ID NO: 21]
- HCVpp % inh (HCV pseudoparticles): 32%
- AMLVpp % inh [1]: 3%

Substance: P-R-C-L-V-H-Y-P-Y-R-L-W-H-Y-P-C (PRCLVHYPYRLWHYPC; HCV peptide) [SEQ ID NO: 62]
- HCVpp % inh (HCV pseudoparticles): 10%
- AMLVpp % inh [1]: −42%

Substance: V-V-D-V-Q-Y-L-Y-G-I-G-S-A-V-V-S [SEQ ID NO: 75]
- HCVpp % inh (HCV pseudoparticles): 39%
- AMLVpp % inh [1]: 44%

Substance: Y-V-G-D-L-C-G-S-V-F-L-V-A-Q-L-F [SEQ ID NO: 15]
- HCVpp % inh (HCV pseudoparticles): 16%
- AMLVpp % inh [1]: −31%

Substance: I-T-Y-N-E-S-H-S-S-D-Q-R-P-Y-C-W [SEQ ID NO: 43]
- HCVpp % inh (HCV pseudoparticles): −13%
- AMLVpp % inh [1]: 17%

Substance: T-G-G-T-N-A-K-N-T-L-G-I-T-S-L-F [SEQ ID NO: 31]
- HCVpp % inh (HCV pseudoparticles): 41%
- AMLVpp % inh [1]: −2%

Substance: L-I-H-L-H-Q-N-V-V-D-V-Q-Y-L-Y-G [SEQ ID NO: 74]
- HCVpp % inh (HCV pseudoparticles): 22%
- AMLVpp % inh [1]: 5%

Substance: N-S-S-R-C-W-V-A-L-T-P-T-L-A-A-R [SEQ ID NO: 9]
- HCVpp % inh (HCV pseudoparticles): 5%
- AMLVpp % inh [1]: 28%

Substance: Y-C-F-T-P-S-P-V-V-V-G-T-T-D-R-F (YCFTPSPVVVGTTDRF; not fully specified (C-terminus); printed as Y-C-F-T-P-S-P-V-V-V-G-T-T-D-R-F) [SEQ ID NO: 48]
- HCVpp % inh (HCV pseudoparticles): 6%
- AMLVpp % inh [1]: 21%

Substance: S-V-F-L-V-A-Q-L-F-T-F-S-P-R-R-H [SEQ ID NO: 16]
- HCVpp % inh (HCV pseudoparticles): 3%
- AMLVpp % inh [1]: −148%

Substance: A-R-N-A-S-V-P-T-T-T-I-R-R-H-V-D [SEQ ID NO: 11]
- HCVpp % inh (HCV pseudoparticles): −26%
- AMLVpp % inh [1]: 24%

Substance: Y-E-V-R-N-V-S-G-V-Y-H-V-T-N-D-C [SEQ ID NO: 3]
- HCVpp % inh (HCV pseudoparticles): 35%
- AMLVpp % inh [1]: 18%

Substance: W-F-G-C-T-W-M-N-S-T-G-F-T-K-T-C (WFGCTWMNSTGFTKTC; HCV peptide) [SEQ ID NO: 54]
- HCVpp % inh (HCV pseudoparticles): 39%
- AMLVpp % inh [1]: −15%

Substance: E-L-S-P-L-L-L-S-T-T-E-W-Q-V-L-P [SEQ ID NO: 70]
- HCVpp % inh (HCV pseudoparticles): 10%
- AMLVpp % inh [1]: 44%

Substance: G-V-Y-H-V-T-N-D-C-S-N-A-S-I-V-Y [SEQ ID NO: 4]
- HCVpp % inh (HCV pseudoparticles): −23%
- AMLVpp % inh [1]: −6%
